In one data set the test system is MT-2 cells. The data set is described as follows: Cytotoxicity assay (CCK-8). Format: cell-based. Conditions: for in vitro cytotoxicity to MT-2 cells: up to 5 μM, 48 h, CCK-8, triplicate. Here is the method:
(§1) The potential cytotoxicity of peptides on MT-2 and M7 cells was measured by using the Cell Counting Kit-8 according to the manufacturer’s instructions (CCK-8, Dojindo Laboratories, Kumamoto, Japan). Briefly, 100 μL of a peptide at graded concentrations were added to equal volumes of cells (10^4 cells/well) in a 96-well plate. Cell viability was evaluated using the CCK-8 kit after incubation at 37 °C for 2 days. Incubation with CCK-8 reagents at 37 °C for another 4 h, the absorbance at 450 nm was measured with an ELISA reader, and the percentage of cytotoxicity was calculated.

For a further data set, the system named is M7 cells. The data set is described as follows: Cytotoxicity assay (CCK-8). Format: cell-based. Conditions: up to 5 μM, 48 h, triplicate. Here is the method: as §1
The next data set addresses T1, gp41 NHR peptide N36 (Human immunodeficiency virus type 1 group M subtype B, UniProt P04578).
T1 construct: purchased KareBay Biochem, Inc; host or cells: solid-phase chemical synthesis
The data set is described as follows: Thermostability of 6-HB formed with N36, by CD. Conditions: CD at 222 nm, 20 to 98 °C at 1.2 °C/min, 10 μM peptide in PBS. Format: binding, HIV-1. Here is the method: CD spectroscopy was conducted as previously described. Briefly, a CHR peptide was incubated with NHR peptide N36 at concentration of 10 μM at 37 °C for 30 min. The separated C-peptides were also measured. The CD spectra were measured on a Jasco spectropolarimeter (model J-815; Jasco, Inc., Easton, MD, USA), using a 1-nm bandwidth with a 1-nm step resolution from 195 to 260 nm at room temperature. The spectra were corrected by subtraction of PBS. The α-helical content was calculated from the CD signal by dividing the mean residue ellipticity [θ] at 222 nm by the value expected for 100% helix formation (-33,000 deg·cm^2·dmol^-1). The thermal denaturation experiment was performed by monitoring the changes in ellipticity [θ] at 222 nm at increasing temperature from 20 to 98 °C at a rate of 1.2 °C/min; data were acquired at a 1-nm bandwidth at 222 nm at a frequency of 0.25 Hz. The melting curve was smoothed, and the midpoint of the thermal unfolding transition (Tm) value was taken as the maximum of the derivative d[θ] 222/dt. Tm value was detected at a peptide concentration of 10 μM in PBS buffer.

The target in the next data set is rhesus monkey IgG. The data set is described as follows: Isothermal titration calorimetry (ITC). Format: binding. The conditions noted are these: 300 μM peptide injected into 30 μM rhesus monkey IgG, PBS, 25 °C. As for the experimental part: ITC assay was performed with an ITC microcalorimeter instrument (NANO ITC, TA Instruments, Lindon, UT) as described previously. In brief, 300 μM peptides were dissolved in PBS and injected into the chamber containing 30 μM of rhesus monkey IgG. The experiments were carried out at 25 °C. The time between injections was 300 s, and the stirring speed was 300 rpm. The heats of dilution were determined in control experiments by injecting peptides into PBS and then subtracting from the heats produced in the corresponding peptide-IgG binding experiments. Data acquisition and analysis were performed using the Origin software, and the best fitting curves were generated with GraphPad Prism.
(In general: ITC needs no label: the signal is the heat of the interaction.)

The conditions of data set [1]: rhesus monkeys, 10 mg/kg i.v. daily for one month, within two months; indirect ELISA. Here is the method: After incubation at 4 °C for 2 h and washes with PBS-T for three times, we added the serially 10-fold diluted plasma of the PBS- or peptide-treated rhesus monkeys. Goat Anti-Monkey IgG H&L (HRP) (Abcam) were incubated for 1 h at 37 °C and washed for five times.
On the technique in general: An ELISA detects its analyte on a solid surface through an enzyme-linked reagent.

Data set [2] has as its system H9/HIV-1IIIB target cells with PBMC effector cells. Description: ADCC assay, 10E8-mediated lysis. Format: cell-based, human. The conditions noted are these: peptide up to 20 μM added to 10E8. Here is the method:
H9/HIV-1IIIB cells expressing HIV-1 Env (2.5 × 10^4 cells) as the target cells were seeded into a 96-well plate (25 μL/well), and the mixture of a serially diluted inhibitors and 10E8 (1.5 μg/mL) was added to the culture plate. PBMC (AllCells) as effector cells (2.5 × 10^4 cells in 25 μL) were cocultured with the mixture-treated target cells at 37 °C overnight, and the […] activity was measured using the CytoTox-ONE Homogeneous Membrane Integrity Assay (Promega).

A further data set has as its system human IgG. Description: ELISA binding to human IgG. Conditions: for binding to human IgG: ELISA, dose-dependent, triplicate. As for the experimental part: Next, different concentrations of human or rhesus monkey IgG were added to the peptide-coated plate and incubated at 37 °C for 1 h. Rabbit anti-human IgG-HRP (1:3000 diluted) was added to each well and incubated at 37 °C for another 1 h. Afterwards, the bound IgG-HRP was detected by addition of the HRP substrate TMB. The reaction was terminated by addition of 1 M H2SO4 50 μL. Absorbance at 450 nm was measured using an ELISA reader (Ultra 384; Tecan, Research Triangle Park, NC).
The data was fitted to the “one site – specific binding” using GraphPad Prism. The standard error (SE) is given for a sample size of three replicates per data point.

The nature of a further data set: in vivo. Here is the method:
The samples were then centrifuged (3200 rpm for 10 min at 4 °C), and plasma was aliquoted and kept frozen until analysis.
After being coated, the plate was washed three times with PBS-T to remove the excess antibody. The remaining active sites on the plate were blocked by the addition of 150 μL 2% milk for 2 h at 37 °C. […] Then, HRP-labeled rabbit anti-mouse IgG (Sigma, USA) incubated at 37 °C for 1 h. The substrate TMB reagent were added and incubated for 5 min, resulting in the development of a blue color. Color development was stopped by the stop solution (1M H2SO4 50 μL/well). Absorbance at 450 nm was determined by an ELISA reader (Ultra 384, Tecan; Tecan, Research Triangle Park, NC).

For data set [3], the system named is HIV-1 IIIB (subtype B, X4). Format: cell-based. The conditions noted are these: for IC50: IIIB (subtype B, X4).
Method: (§2) Briefly, 1×10^5/mL MT-2 or M7 cells were infected with different HIV-1 viruses at 100 TCID50 (50% tissue culture infective dose) in the presence or absence of peptides at graded concentrations overnight. Then the culture supernatants were replaced with equal volume of fresh medium. On the fourth day post-infection, supernatants were collected and mixed with equal volume of 5% Triton X-100. […] The IC50 values were calculated with CalcuSyn software [35–36], and inhibition curves of best fit were generated with GraphPad Prism.
Data set [4] concerns HIV-1 Bal (subtype B, R5). Format: cell-based. The conditions noted are these: for IC50: Bal (subtype B, R5).
Method: as §2
For data set [5] the following is noted: rhesus monkeys; for t1/2: plasma, 10 mg/kg i.v., active peptide concentration estimated from ex vivo anti-HIV-1 IIIB activity (DF-IC50) and in vitro IC50, MODFIT; for AUC(0-t) / Cmax / MRT 0-inf_obs / Tmax: concentration estimated from ex vivo anti-HIV-1 activity.
Where [6] appears, read: rhesus monkey, plasma, iv, 10 mg/kg.

Where two headings read alike, the source gives them in different places. Positions of bridges follow the written chain, without caps; N, C: chain ends. Residues, ends and D or L forms follow the SMILES beside them. No end group written: not given here.

T1 sequence (P04578 546-581): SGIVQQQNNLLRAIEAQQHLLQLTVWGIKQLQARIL

One may read the Kd as the equilibrium constant for the complex coming apart. As usually defined, the AUC(0-t) is the area under the concentration-time curve up to a stated or last time point. One may read the Cmax as the maximum level reached in the sampled fluid or tissue. The MRT is the average time that molecules of a dose stay in the body. As usually defined, the half-life is how long it takes for the measured level to halve. A word on the Tmax: it is the time from dosing to the highest level. Usually IC50 stands for the point on the concentration scale where inhibition reaches its midpoint. Regarding `CC[C@H](C)[C@H](NC(=O)[C@H](CC(C)C)NC(=O)[C@H](CCC(=O)O)NC(=O)[C@H](CCC(=O)O)NC(=O)[C@@H](NC(=O)[C@H](CCCCN)NC(=O)[C@H](CCCCN)NC(=O)[C@@H](NC(=O)[C@H](Cc1ccc(O)cc1)NC(=O)[C@H](CCC(=O)O)NC(=O)[C@H](CCC(=O)O)NC(=O)[C@@H](NC(=O)[C@H](CCCCN)NC(=O)[C@H](CCCCN)NC(=O)[C@H](CC(=O)O)NC(=O)[C@H](Cc1c[nH]c2ccccc12)NC(=O)[C@H](CCC(=O)O)NC(=O)[C@H](CCC(=O)O)NC(=O)[C@H](Cc1c[nH]c2ccccc12)NC(=O)[C@@H](NC(=O)[C@H](CCSC)NC(=O)[C@@H](NC(=O)[C@@H]1CSSC[C@H](NC(=O)[C@@H](N)CC(=O)O)C(=O)N[C@@H](C)C(=O)N[C@@H](Cc2c[nH]c3ccccc23)C(=O)N[C@@H](Cc2c[nH]cn2)C(=O)N[C@@H](CC(C)C)C(=O)NCC(=O)N[C@@H](CCC(=O)O)C(=O)N[C@@H](CC(C)C)C(=O)N[C@@H](C(C)C)C(=O)N[C@@H](Cc2c[nH]c3ccccc23)C(=O)N1)[C@@H](C)O)[C@@H](C)O)[C@@H](C)CC)[C@@H](C)O)[C@@H](C)CC)C(=O)N[C@@H](CCCCN)C(=O)N[C@@H](CCCCN)C(=O)N[C@@H](CO)C(=O)O` [IBP-CP24] (H-DCAWHLGELVWCTMTWEEWDKKIEEYTKKIEELIKKS-OH; disulfide 2-12; N-terminus and C-terminus assumed), in the data set with MT-2 cells (5 μM versus IC50, MT-2 and M7 cells), the “non-cytotoxic concentration fold higher than IC50 for HIV-1 inhibition” value was “more than 800 fold”. The “in vitro cytotoxicity to MT-2 cells” value in the data set on MT-2 cells is reported as “no significant in vitro cytotoxicity”. In the data set on M7 cells, the “in vitro cytotoxicity to M7 cells” value is reported as “no significant in vitro cytotoxicity”. For the same molecule, the “Tm of the 6-HB formed with N36” value at gp41 NHR peptide N36 was 85.25 °C. At rhesus monkey IgG, this molecule registered a Kd of 0.946 µM. In addition, the “peptide-specific antibodies in plasma” value in data set [1] was “no significant detectable antibodies”. The “effect on 10E8-mediated lytic activity” value in data set [2] is reported as “remained about the same”. Moreover, the “binding to human IgG” value in the data set with human IgG is “higher binding affinity with human IgG than IBP alone”. For the same molecule, the equilibrium dissociation constant (Kd) at human IgG (read-out: Estimated Kd of binding to human IgG, ELISA on peptide-coated plate, one site specific binding fit, ± SE, three replicates per point) is 0.177 µM. In addition, the “fold longer half-life than CP24” value in the data set “in vivo” (rhesus monkey plasma, 10 mg/kg i.v.) is given as 26 fold. In the data set “in vivo” (setting [6]), this molecule gave an AUC(0-t) of 3430 µg·h/mL, a Cmax of 52.7 µg/mL, an MRT of 64.4 h and a half-life of 46.1 h. Besides, in “in vivo” (rhesus monkeys, 10 mg/kg i.v.), the “fold higher AUC 0-t than CP24” value is given as “about 18 fold”. In addition, in the data set “in vivo” (rhesus monkeys, single i.v. 10 mg/kg, sandwich ELISA, CP24 n = 2, IBP-CP24 n = 3), the Tmax is given as 4 h. Besides, in data set [3], the “fold more potent than CP24 against HIV-1 IIIB” value is “about 2.3 fold” and the midpoint of inhibition, the IC50, lay at 0.0059 µM. In addition, in data set [4], the “fold more potent than CP24 against HIV-1 Bal” value is on record as roughly 2.9 fold and inhibition was half-maximal at 0.00257 µM (IC50). In data set [5], the t1/2 was 44.81 h, the “AUC(0-t)” value was 3610.65 µg·h/mL, the Cmax is 76.23 µg/mL and the “MRT 0-inf_obs” value is listed as 61.39 h. For the same molecule, the Tmax in data set [5] is recorded as 4 h.
For the molecule “MTWEEWDKKIEEYTKKIEELIKKS [CP24, reference compound]”, the “in vitro cytotoxicity to MT-2 cells” value in the data set on MT-2 cells is listed as “no in vitro cytotoxicity”. The “in vitro cytotoxicity to M7 cells” value with M7 cells is listed as “no in vitro cytotoxicity”. Moreover, the “Tm of the 6-HB formed with N36” value at gp41 NHR peptide N36 is 78.69 °C. The Kd on rhesus monkey IgG was 1000 µM. The “peptide-specific antibodies in plasma” value in data set [1] is on record as “no significant detectable antibodies”. Besides, the “effect on 10E8-mediated lytic activity” value in data set [2] is reported as “remained about the same”. Moreover, the “binding to human IgG” value in the data set with human IgG was “could not bind with human IgG”. Besides, in “in vivo” (setting [6]), the AUC(0-t) was determined as 180 µg·h/mL, the Cmax was found to be 23.6 µg/mL, the MRT amounted to 4.47 h and the Tmax was determined as 2 h. Besides, the half-life in “in vivo” (setting [6]) is 1.69 h. The IC50 in data set [3] was determined as 0.0195 µM. Further, in data set [4], the IC50 was 0.0101 µM. In addition, in data set [5], the t1/2 is reported as 1.37 h, the “AUC(0-t)” value is 237.88 µg·h/mL, the Cmax was 77.82 µg/mL and the “MRT 0-inf_obs” value is recorded as 3.17 h. Moreover, the time to peak (Tmax) in data set [5] is on record as 2 h.

These data come from article PMC6894747 (PLoS Pathogens, 2019).
